According to patent US20120165223A1 (priority 2006, published 2012):

Test system: crypt cells of the colon of HFA mice
Experiment: DNA chip showing specific responses to human intestinal normal bacterial flora, colistin-treated HFA mice
Conditions: 500 μg/Ml in drinking water three weeks
[1] = colon crypt cells, then halted one week

Description: The colon is collected and the gene expression of crypt cells obtained from the colon is compared with the control group (HFA mice).
In other words, the material or the food is orally administered to HFA mice, which are autopsied along with control HFA mice not having been administered. The crypt cells of the colon are collected to separate RNA. Next, the separated RNA is amplified and Cy3 fluorescence material is labelled on the genes of HFA mice and Cy5 fluorescence material is labelled on the genes of the administered group to react with the gene chip which is a product of the present invention to get the difference of expressions of the 90 genes.
RNA is collected and amplified from the crypt cells of the colon to manufacture a DNA chip, which is reacted with RNA of HFA mice being the control group. The degree of expressing genes and the change of composition of intestinal normal bacterial flora of the colon and the activity of the enzymes produced by the human intestinal bacterial flora such as glucuomidase, glucosidase, nitrate reductase and azoreductase are investigated and used as an index showing the disruption of the human intestinal normal bacterial flora.

colistin sulfate
Disruption of the human intestinal normal bacterial flora, recovery after stop of administration (one week after stop): not recovered in one week after the administration of colistin is stopped | Number of genes in total showing a difference by more than 1.5 times in comparison with the control group (then halted one week): 38 genes | Number of the 90 genes with the same tendency of increase and decrease as observed when the flora is disturbed (then halted one week): 25 genes | 1110037F02Rik gene expression HFA-Coli/HFA [1]: 13.33 | 1110037F02Rik gene expression, HFA-Coli [1]: 133.2 | 1110038M16Rik gene expression HFA-Coli/HFA [1]: 1.355 | 1110038M16Rik gene expression, HFA-Coli [1]: 195.8 | 1700012H17Rik gene expression HFA-Coli/HFA [1]: 0.969 | 1700012H17Rik gene expression, HFA-Coli [1]: 594.0 | 2610529I12Rik gene expression HFA-Coli/HFA [1]: 1.049 | 2610529I12Rik gene expression, HFA-Coli [1]: 1108 | 4732481h14Rik gene expression HFA-Coli/HFA [1]: 0.750 | 4732481h14Rik gene expression, HFA-Coli [1]: 209.2 | 4930455F23Rik gene expression HFA-Coli/HFA [1]: 0.851 | 4930455F23Rik gene expression, HFA-Coli [1]: 634.5 | 5031404N19 gene expression HFA-Coli/HFA [1]: 0.956 | 5031404N19 gene expression, HFA-Coli [1]: 444.2 | 5430437F03Rik gene expression HFA-Coli/HFA [1]: 1.826 | 5430437F03Rik gene expression, HFA-Coli [1]: 485.8 | 6330590F17Rik gene expression HFA-Coli/HFA [1]: 1.341 | 6330590F17Rik gene expression, HFA-Coli [1]: 84.50 | 9830148O20Rik gene expression HFA-Coli/HFA [1]: 1.400 | 9830148O20Rik gene expression, HFA-Coli [1]: 815.0 | Alas1 gene expression HFA-Coli/HFA [1]: 1.857 | Alas1 gene expression, HFA-Coli [1]: 577.0 | Aldh6a1 gene expression HFA-Coli/HFA [1]: 0.971 | Aldh6a1 gene expression, HFA-Coli [1]: 286.5 | Au043625 gene expression HFA-Coli/HFA [1]: 1.167 | Au043625 gene expression, HFA-Coli [1]: 336.5 | Bnip3l gene expression HFA-Coli/HFA [1]: 1.753 | Bnip3l gene expression, HFA-Coli [1]: 729.5 | C130039O16 gene expression HFA-Coli/HFA [1]: 1.160 | C130039O16 gene expression, HFA-Coli [1]: 680.0 | CPd gene expression HFA-Coli/HFA [1]: 0.848 | CPd gene expression, HFA-Coli [1]: 587.8 | Cacnb3 gene expression HFA-Coli/HFA [1]: 0.649 | Cacnb3 gene expression, HFA-Coli [1]: 661.2 | Cav gene expression HFA-Coli/HFA [1]: 1.029 | Cav gene expression, HFA-Coli [1]: 206.0 | Ccnd2 gene expression HFA-Coli/HFA [1]: 0.839 | Ccnd2 gene expression, HFA-Coli [1]: 315.5 | Cdc45l gene expression HFA-Coli/HFA [1]: 1.652 | Cdc45l gene expression, HFA-Coli [1]: 100.8 | Cited1 gene expression HFA-Coli/HFA [1]: 1.222 | Cited1 gene expression, HFA-Coli [1]: 289.0 | Ckap2 gene expression HFA-Coli/HFA [1]: 1.661 | Ckap2 gene expression, HFA-Coli [1]: 548.0 | Cldn8 gene expression HFA-Coli/HFA [1]: 1.195 | Cldn8 gene expression, HFA-Coli [1]: 406.5 | Col3a1 gene expression HFA-Coli/HFA [1]: 2.136 | Col3a1 gene expression, HFA-Coli [1]: 441.0 | Cotl11 gene expression HFA-Coli/HFA [1]: 1.883 | Cotl11 gene expression, HFA-Coli [1]: 1227 | Crem gene expression HFA-Coli/HFA [1]: 0.890 | Crem gene expression, HFA-Coli [1]: 355.8 | Crsp7 gene expression HFA-Coli/HFA [1]: 2.045 | Crsp7 gene expression, HFA-Coli [1]: 1218 | Cul4b gene expression HFA-Coli/HFA [1]: 1.715 | Cul4b gene expression, HFA-Coli [1]: 91.75 | D230019K24Rik gene expression HFA-Coli/HFA [1]: 2.598 | D230019K24Rik gene expression, HFA-Coli [1]: 142.2 | Daf1 gene expression HFA-Coli/HFA [1]: 2.085 | Daf1 gene expression, HFA-Coli [1]: 419.0 | Dap3 gene expression HFA-Coli/HFA [1]: 1.274 | Dap3 gene expression, HFA-Coli [1]: 634.5 | Dcamkl1 gene expression HFA-Coli/HFA [1]: 0.679 | Dcamkl1 gene expression, HFA-Coli [1]: 615.2 | Ddx1 gene expression HFA-Coli/HFA [1]: 1.094 | Ddx1 gene expression, HFA-Coli [1]: 370.0 | Eif2ak3 gene expression HFA-Coli/HFA [1]: 1.274 | Eif2ak3 gene expression, HFA-Coli [1]: 685.0 | Epc1 gene expression HFA-Coli/HFA [1]: 1.452 | Epc1 gene expression, HFA-Coli [1]: 228.8 | Fads3 gene expression HFA-Coli/HFA [1]: 1.422 | Fads3 gene expression, HFA-Coli [1]: 409.2 | Fn3k gene expression HFA-Coli/HFA [1]: 0.785 | Fn3k gene expression, HFA-Coli [1]: 415.5 | Gmnn gene expression HFA-Coli/HFA [1]: 0.997 | Gmnn gene expression, HFA-Coli [1]: 673.8 | Gstm2 gene expression HFA-Coli/HFA [1]: 0.944 | Gstm2 gene expression, HFA-Coli [1]: 164.8 | Guca1a gene expression HFA-Coli/HFA [1]: 1.553 | Guca1a gene expression, HFA-Coli [1]: 417.0 | Hdac5 gene expression HFA-Coli/HFA [1]: 0.949 | Hdac5 gene expression, HFA-Coli [1]: 473.8 | Hsd17b2 gene expression HFA-Coli/HFA [1]: 1.453 | Hsd17b2 gene expression, HFA-Coli [1]: 1737 | Igj gene expression HFA-Coli/HFA [1]: 0.888 | Igj gene expression, HFA-Coli [1]: 210.5 | Il16 gene expression HFA-Coli/HFA [1]: 1.470 | Il16 gene expression, HFA-Coli [1]: 568.0 | Il18 gene expression HFA-Coli/HFA [1]: 1.094 | Il18 gene expression, HFA-Coli [1]: 531.5 | Ipo4 gene expression HFA-Coli/HFA [1]: 2.566 | Ipo4 gene expression, HFA-Coli [1]: 140.5 | Keap1 gene expression HFA-Coli/HFA [1]: 0.687 | Keap1 gene expression, HFA-Coli [1]: 564.0 | Klf3 gene expression HFA-Coli/HFA [1]: 0.764 | Klf3 gene expression, HFA-Coli [1]: 195.8 | Lnx1 gene expression HFA-Coli/HFA [1]: 0.171 | Lnx1 gene expression, HFA-Coli [1]: 98.25 | Lrp10 gene expression HFA-Coli/HFA [1]: 2.132 | Lrp10 gene expression, HFA-Coli [1]: 1648 | Mcpt4 gene expression HFA-Coli/HFA [1]: 1.505 | Mcpt4 gene expression, HFA-Coli [1]: 181.8 | Mllt1 gene expression HFA-Coli/HFA [1]: 0.781 | Mllt1 gene expression, HFA-Coli [1]: 502.8 | Mpp1 gene expression HFA-Coli/HFA [1]: 0.874 | Mpp1 gene expression, HFA-Coli [1]: 638.0 | Mt-1 gene expression HFA-Coli/HFA [1]: 3.610 | Mt-1 gene expression, HFA-Coli [1]: 2033 | Mtmr7 gene expression HFA-Coli/HFA [1]: 2.084 | Mtmr7 gene expression, HFA-Coli [1]: 173.0 | Mut gene expression HFA-Coli/HFA [1]: 1.238 | Mut gene expression, HFA-Coli [1]: 999.5 | Ncoa6 gene expression HFA-Coli/HFA [1]: 3.070 | Ncoa6 gene expression, HFA-Coli [1]: 374.5 | Npm1 gene expression HFA-Coli/HFA [1]: 1.840 | Npm1 gene expression, HFA-Coli [1]: 350.0 | Parva gene expression HFA-Coli/HFA [1]: 1.330 | Parva gene expression, HFA-Coli [1]: 153.0 | Per1 gene expression HFA-Coli/HFA [1]: 1.227 | Per1 gene expression, HFA-Coli [1]: 803.5 | Plp gene expression HFA-Coli/HFA [1]: 1.232 | Plp gene expression, HFA-Coli [1]: 2108 | Prkrir gene expression HFA-Coli/HFA [1]: 0.644 | Prkrir gene expression, HFA-Coli [1]: 510.0 | Ptgs1 gene expression HFA-Coli/HFA [1]: 2.280 | Ptgs1 gene expression, HFA-Coli [1]: 2454 | Ptgs2 gene expression HFA-Coli/HFA [1]: 1.721 | Ptgs2 gene expression, HFA-Coli [1]: 423.8 | Purb gene expression HFA-Coli/HFA [1]: 2.438 | Purb gene expression, HFA-Coli [1]: 527.8 | Rab6ip1 gene expression HFA-Coli/HFA [1]: 2.725 | Rab6ip1 gene expression, HFA-Coli [1]: 203.0 | Rgs12 gene expression HFA-Coli/HFA [1]: 1.395 | Rgs12 gene expression, HFA-Coli [1]: 152.8 | Rhcg gene expression HFA-Coli/HFA [1]: 1.572 | Rhcg gene expression, HFA-Coli [1]: 286.5 | Rnf12 gene expression HFA-Coli/HFA [1]: 1.234 | Rnf12 gene expression, HFA-Coli [1]: 72.50 | Rpa1 gene expression HFA-Coli/HFA [1]: 1.626 | Rpa1 gene expression, HFA-Coli [1]: 353.8 | Rpl27 gene expression HFA-Coli/HFA [1]: 1.021 | Rpl27 gene expression, HFA-Coli [1]: 1768 | Rwl-pending gene expression HFA-Coli/HFA [1]: 1.623 | Rwl-pending gene expression, HFA-Coli [1]: 490.5 | Serping1 gene expression HFA-Coli/HFA [1]: 1.113 | Serping1 gene expression, HFA-Coli [1]: 153.0 | Sh3glb2 gene expression HFA-Coli/HFA [1]: 1.081 | Sh3glb2 gene expression, HFA-Coli [1]: 578.0 | Siat9 gene expression HFA-Coli/HFA [1]: 1.010 | Siat9 gene expression, HFA-Coli [1]: 1439 | Slc22a1l gene expression HFA-Coli/HFA [1]: 1.054 | Slc22a1l gene expression, HFA-Coli [1]: 1671 | Slc26a1 gene expression HFA-Coli/HFA [1]: 1.302 | Slc26a1 gene expression, HFA-Coli [1]: 203.5 | Srpk2 gene expression HFA-Coli/HFA [1]: 0.480 | Srpk2 gene expression, HFA-Coli [1]: 312.2 | Tacc2 gene expression HFA-Coli/HFA [1]: 2.279 | Tacc2 gene expression, HFA-Coli [1]: 179.5 | Tccr gene expression HFA-Coli/HFA [1]: 0.821 | Tccr gene expression, HFA-Coli [1]: 682.0 | Tcl1 gene expression HFA-Coli/HFA [1]: 1.688 | Tcl1 gene expression, HFA-Coli [1]: 290.2 | Tcp11 gene expression HFA-Coli/HFA [1]: 1.222 | Tcp11 gene expression, HFA-Coli [1]: 536.5 | Thsd1 gene expression HFA-Coli/HFA [1]: 1.373 | Thsd1 gene expression, HFA-Coli [1]: 477.8 | Tiam2 gene expression HFA-Coli/HFA [1]: 7.565 | Tiam2 gene expression, HFA-Coli [1]: 160.8 | Tnfsf13b gene expression HFA-Coli/HFA [1]: 2.153 | Tnfsf13b gene expression, HFA-Coli [1]: 256.8 | Tuba4 gene expression HFA-Coli/HFA [1]: 1.623 | Tuba4 gene expression, HFA-Coli [1]: 799.2 | Ugcg gene expression HFA-Coli/HFA [1]: 0.625 | Ugcg gene expression, HFA-Coli [1]: 1158 | Usp15 gene expression HFA-Coli/HFA [1]: 1.355 | Usp15 gene expression, HFA-Coli [1]: 85.00 | Ybx2 gene expression HFA-Coli/HFA [1]: 1.478 | Ybx2 gene expression, HFA-Coli [1]: 164.8 | Zdhhc3 gene expression HFA-Coli/HFA [1]: 1.710 | Zdhhc3 gene expression, HFA-Coli [1]: 357.8
